Experimental findings from patent US20100016300A1, “Imidazoacridine Compounds for Treating FLT3-Mediated Disorders” (priority 2006, published 2010) are described below.

Positions count from the first letter of the chain named. Like-named read-outs stand apart in the source and are kept apart here. Some results are limits rather than exact numbers.

Test [1] concerns the target T1, FLT3 (Homo sapiens, UniProt P36888).
T1 construct: the juxtamembrane, ATP and catalytic components projecting from the cell membrane into the cytosol have been expressed through recombinant genetic techniques; purchased Invitrogen, Inc. (SelectScreen platform)
T1 sequence (P36888 564-993 limits assumed): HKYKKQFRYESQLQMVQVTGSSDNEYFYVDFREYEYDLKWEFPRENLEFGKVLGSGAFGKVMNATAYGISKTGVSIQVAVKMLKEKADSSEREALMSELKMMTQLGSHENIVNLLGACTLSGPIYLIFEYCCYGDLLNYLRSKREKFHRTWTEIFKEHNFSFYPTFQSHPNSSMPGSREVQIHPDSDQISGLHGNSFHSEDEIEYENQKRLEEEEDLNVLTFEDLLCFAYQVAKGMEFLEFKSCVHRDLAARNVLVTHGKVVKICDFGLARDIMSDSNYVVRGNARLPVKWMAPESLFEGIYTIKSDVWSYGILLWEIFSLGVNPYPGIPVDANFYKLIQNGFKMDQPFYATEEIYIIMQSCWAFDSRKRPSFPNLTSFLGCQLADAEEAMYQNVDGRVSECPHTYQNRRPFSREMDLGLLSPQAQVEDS
In words: SelectScreen in vitro dose response assay against FLT3 (Example 7). The format is biochemical. Particulars: ATP at 100 micromolar; 4 parameter Hill equation. As to the method: The terms “IC50” and “EC50” are used interchangeably. As used herein, “EC50” refers to nMolar concentration at median percent inhibition determined by dose respose (DR) assay. As used herein, the term “E1000” refers to percent inhibition at 1000 nMolar determined by assay. EC50 was calculated based on dose response curve was fitted to 4 parameter Hill equation.
The compounds were then re-tested by adding graded amounts of putative inhibitor which were added in 5 separate increments to generate a dose response curve. The latter is obtained by fitting to a 4 parameter Hill equation, a sigmoid saturation equation.
The 2× FLT3/Tyr 02 peptide mixture was prepared in 50 mM HEPES pH 7.5, 0.01 BRIJ-35, 10 mM MgCl2, 1 mM EGTA. The final 10 uL kinase reaction consists of 0.6-76.0 ng FLT3 and 2 uM Tyr 02 peptide in 50 mM HEPES pH 7.5, 0.01% BRIJ-35, 10 mM Mg Cl2, 1 mM EGTA. After 1 hour kinase reaction incubation, 5 uL of a 1:64 dilution of development reagent A was added.

Test [2] has as its target T2, FGFR2 (Homo sapiens, UniProt P21802).
T2 construct: the juxtamembrane, ATP and catalytic components projecting from the cell membrane into the cytosol have been expressed through recombinant genetic techniques; purchased Invitrogen, Inc. (SelectScreen platform)
In words: SelectScreen in vitro kinase screen, FGFR2. The format is biochemical. From the text: (§1) The IC50 value is, therefore, a measure of potency. Another important feature is specificity.

In test [3] the target is NTRK1 (Homo sapiens, UniProt P04629). In words: Kinase selectivity analysis (FIG. 4A), NTRK1. Particulars: in words. The format is biochemical.
Chain of NTRK1 (P04629 33-796): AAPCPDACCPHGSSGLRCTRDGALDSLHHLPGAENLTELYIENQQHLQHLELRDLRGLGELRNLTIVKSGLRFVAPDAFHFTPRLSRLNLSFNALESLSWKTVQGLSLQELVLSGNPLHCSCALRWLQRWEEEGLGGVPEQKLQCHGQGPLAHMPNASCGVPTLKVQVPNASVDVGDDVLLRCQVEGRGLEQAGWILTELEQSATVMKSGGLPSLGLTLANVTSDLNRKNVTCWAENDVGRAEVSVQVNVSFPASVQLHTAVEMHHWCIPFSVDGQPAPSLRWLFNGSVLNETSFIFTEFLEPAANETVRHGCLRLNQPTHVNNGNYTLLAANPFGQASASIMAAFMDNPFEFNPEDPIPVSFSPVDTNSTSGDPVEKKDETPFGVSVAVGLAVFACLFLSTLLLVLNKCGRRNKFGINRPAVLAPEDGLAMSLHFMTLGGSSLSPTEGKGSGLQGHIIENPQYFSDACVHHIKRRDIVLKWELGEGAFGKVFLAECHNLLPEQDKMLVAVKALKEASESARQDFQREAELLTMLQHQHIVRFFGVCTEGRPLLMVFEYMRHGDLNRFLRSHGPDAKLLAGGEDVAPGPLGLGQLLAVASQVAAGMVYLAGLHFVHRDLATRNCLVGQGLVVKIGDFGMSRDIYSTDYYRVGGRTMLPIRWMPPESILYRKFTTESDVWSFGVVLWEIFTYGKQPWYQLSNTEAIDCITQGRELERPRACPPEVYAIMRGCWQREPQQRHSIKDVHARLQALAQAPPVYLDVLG
Description: as §1

Test [4] addresses PDGFRb (Homo sapiens, UniProt P09619). In words: Kinase selectivity analysis (FIG. 4A), PDGFRb. The conditions noted are these: in words. The format is biochemical. The protocol: (§2) Testing of the compounds described in this invention was carried out using the SelectScreen™ platform from Invitrogen, Inc. (Carlsbad, Calif., USA) and the details of its performance are readily viewed via the web by linking to: http://www.invitrogen.com/downloads/SelectScm_Brochure.pdf.
(§3) Briefly the approach is based on treating each specific kinase with a unique substrate and optical reporter system in the presence of ATP at 100 micromolar or at the apparent optimal ATP concentration for each kinase. In controls, the substrate is phosphorylated and a baseline optimal response is recorded. Graded amounts of putative inhibitor are then added in separate increments to generate a dose response curve. The latter is obtained by fitting to a sigmoid saturation equation, such as the Hill equation, and the concentration of test article producing 50 per cent inhibition is then noted as the IC50. […] The IC50 value is, therefore, a measure of potency. Another important feature is specificity. It is considered a desirable property when claiming efficacy to determine how many kinases are inhibited by the same molecule. The fewer number inhibited points toward specificity; the greater to inhibitory promiscuity.
(§4) First the compounds of this invention were tested against a subset, the primary kinase screen, to determine initial activity at 1 and 0.1 micromolar concentrations.

In test [5] the test system is PKC. In words: Kinase selectivity analysis (FIG. 4A), PKC. The format is biochemical. The conditions noted are these: in words. As to the method:
as §2, §3, §4

The target of test [6] is T1, FLT3. In words: SelectScreen in vitro kinase screen, FLT3 (Example 2). The format is biochemical. The conditions noted are these: for activity against FLT3: in words.
Description: as §1

In test [7] the target is T3, FLT3 D835Y (Homo sapiens, UniProt P36888, D835Y).
T3 construct: the juxtamembrane, ATP and catalytic components projecting from the cell membrane into the cytosol have been expressed through recombinant genetic techniques; purchased Invitrogen, Inc. (SelectScreen platform)
T3 sequence (P36888 564-993 D835Y limits assumed): T1 sequence (P36888 564-993 limits assumed) with D272Y
Nature of the test: SelectScreen in vitro kinase screen, FLT3 mutant. The format is biochemical. The conditions noted are these: in words.
Description: as §1

Test [8] has as its system KDR, PDGF and TRK members of the RTK family. In words: SelectScreen in vitro kinase screen, closely related RTKs. The format is biochemical. Particulars: in words, relative to FLT3.
Description: as §1

The target in test [9] is all the other RTK's. In words: SelectScreen in vitro kinase screen, other RTK and TK enzymes. The conditions noted are these: read-out: IC50 against all the other RTK's. The format is biochemical.
Description: as §1

Test [10] deals with RS4(11) cells. Nature of the test: Cell viability in RS4(11) cells. The format is cell-based, human. From the text: (§5) It is now understood that an important subset of human myeloid leukemia cells overexpress FLT3 as constitutively activated mutations. The most prevalent of these is the internal tandem duplication. Two cell lines commonly used to test the potency of FLT3 inhibitors on cell growth and viability are the RS4(11) and MV4(11). The RS4(11) cell line, also known as RS4;11, was established from a bone marrow patient with acute lymphoblastic leukemia. This patient was […]. The cells lack surface and cytoplasmic immunoglobulin, and are negative for CD10. The cells have a characteristic chromosome translocation (4;11)(q21;q23), and an isochromosome for the long arm of chromosome 7. These cells express the wild-type FLT3 receptor and are further characterized by expression of the MHC Class II antigens (HLA DR+); CD9+; CD24+. The MV4(11) cell line, also known as MV-4-11, was established from the blast cells of a person with biphenotypic B myelomonocytic leukemia (ATCC). Other sources indicate this cell line is derived from acute monocytic leukemia (AML FAB M5). […] These cells express a mutant form of FLT3 containing an internal tandem duplication (ITD), and are further characterized by expression of CD4 (40-96%); CD10 (4-11%); CD15 (96-99%). […]

For test [11], the system named is MV4(11) cells. Nature of the test: Cell viability in MV4(11) cells. The conditions noted are these: FLT3 ITD, compared with PKC412. The format is cell-based, human.
Description: as §5

Test [12] relates to Experimental Autoimmune Encephalomyelitis (EAE). In words: Experimental autoimmune encephalomyelitis (EAE) in mice. The conditions noted are these: oral, from day 5: 10 mg/kg every 24 hrs, 20 mg/kg every 48 hrs, 30 mg/kg every 72 hrs; versus vehicle controls. The format is in vivo, C57BL/6 mice. As to the method: The EAE preparation used to test the efficacy of the imidazoacridinone analogs of the present invention followed a similar protocol as described by Small et al. (Patent Application WO 2006/020145 A2, 23 Feb. 2006) and was conducted by MD Biosciences, a contract research organization that provides in vivo and in vitro disease models as well as mode of action studies for general inflammatory screening, arthritis, IBD, and multiple sclerosis. C57BL/6 mice were immunized with proteolipid protein emulsified in Complete Freund's Adjuvant on day 0 of the study. After a booster with pertussis toxin also on day 0 and then on day 2, the mice were treated on day 5 after disease induction with three oral dosing schedules of XF-2, at 10 mg/kg every 24 hrs, 20 mg/kg every 48 hrs and 30 mg/kg every 72 hrs.

Test [13] has as its system HL-60 leukemia. Nature of the test: Growth arrest in HL-60 leukemia. The conditions noted are these: Homo sapiens, HL-60, read-out: EC50 growth arrest.
Description: When standard protocols for adherent cell culture are followed, according to the instructions supplied by the American Type Culture Collection for the two line, the cell will proliferate with an approximate 30 hour doubling time.
Where [14] appears, read: read-out: IC50 as FLT3 inhibitors (FIG. 3).

T2 sequence (P21802 399-821 limits assumed): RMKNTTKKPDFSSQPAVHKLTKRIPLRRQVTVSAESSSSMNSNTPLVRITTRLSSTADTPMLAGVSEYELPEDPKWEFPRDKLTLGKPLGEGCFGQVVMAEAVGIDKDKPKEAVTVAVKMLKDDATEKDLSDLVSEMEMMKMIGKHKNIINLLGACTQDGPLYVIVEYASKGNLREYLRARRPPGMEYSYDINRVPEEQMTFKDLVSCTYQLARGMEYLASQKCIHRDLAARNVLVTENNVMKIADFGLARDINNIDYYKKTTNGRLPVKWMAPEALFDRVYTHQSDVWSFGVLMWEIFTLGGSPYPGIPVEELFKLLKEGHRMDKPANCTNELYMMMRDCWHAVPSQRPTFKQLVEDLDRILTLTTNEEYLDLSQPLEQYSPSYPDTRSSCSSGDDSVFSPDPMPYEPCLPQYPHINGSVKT
Chain of PDGFRb (P09619 33-1106): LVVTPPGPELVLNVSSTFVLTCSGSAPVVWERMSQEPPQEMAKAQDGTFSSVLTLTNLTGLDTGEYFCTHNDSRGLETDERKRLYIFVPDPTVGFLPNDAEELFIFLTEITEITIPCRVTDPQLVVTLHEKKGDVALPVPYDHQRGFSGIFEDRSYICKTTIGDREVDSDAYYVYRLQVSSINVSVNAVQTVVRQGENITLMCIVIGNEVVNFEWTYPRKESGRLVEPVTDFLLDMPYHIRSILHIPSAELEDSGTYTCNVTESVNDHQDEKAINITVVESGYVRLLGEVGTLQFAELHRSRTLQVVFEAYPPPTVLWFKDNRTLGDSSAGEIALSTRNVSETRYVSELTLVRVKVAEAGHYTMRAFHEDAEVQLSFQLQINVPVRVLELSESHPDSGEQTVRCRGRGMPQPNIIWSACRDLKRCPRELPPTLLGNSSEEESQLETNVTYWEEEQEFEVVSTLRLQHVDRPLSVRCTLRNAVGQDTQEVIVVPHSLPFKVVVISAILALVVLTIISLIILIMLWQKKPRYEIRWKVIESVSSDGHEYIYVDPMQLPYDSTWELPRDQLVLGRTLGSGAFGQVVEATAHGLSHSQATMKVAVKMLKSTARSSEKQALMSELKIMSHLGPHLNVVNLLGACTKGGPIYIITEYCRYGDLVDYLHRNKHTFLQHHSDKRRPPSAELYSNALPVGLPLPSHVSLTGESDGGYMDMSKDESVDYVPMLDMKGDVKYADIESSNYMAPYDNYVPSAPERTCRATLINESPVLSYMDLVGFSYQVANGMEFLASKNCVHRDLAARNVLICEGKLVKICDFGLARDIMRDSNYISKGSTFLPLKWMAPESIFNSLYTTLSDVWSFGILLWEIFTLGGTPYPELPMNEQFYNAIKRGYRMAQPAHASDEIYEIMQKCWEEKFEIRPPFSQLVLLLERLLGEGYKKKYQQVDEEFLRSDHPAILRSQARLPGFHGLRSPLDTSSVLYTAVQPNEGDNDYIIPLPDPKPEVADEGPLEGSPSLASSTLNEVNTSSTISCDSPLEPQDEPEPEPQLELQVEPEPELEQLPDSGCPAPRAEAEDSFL

Take `CN(C)CCNc1ccc2ncn3c4ccccc4c(=O)c1c23` [XF-0308]: in [1], the EC50 amounted to 133 nM.
Compound `O=c1c2cc(O)ccc2n2cnc3ccc(NCCN4CCCC4)c1c32` [XF-0241] displayed an EC50 in test [1] of 50 nM.
`O=c1c2c(NCCN3CCOCC3)ccc3ncn(c4ccc5[nH]ncc5c14)c32` [XF-0122] gave an EC50 in [1] of 51 nM.
Take `C[C@]12O[C@H](C[C@]1(O)CO)n1c3ccccc3c3c4c(c5c6ccccc6n2c5c31)CNC4=O` [CEP-701, reference compound]: the “inhibition of FGFR2” value in test [2] (in words, FIG. 4A) is “inhibits”. Moreover, in [3], the “inhibition of NTRK1” value is given as “inhibits”.
For `CO[C@@H]1[C@H](N(C)C(=O)c2ccccc2)C[C@H]2O[C@]1(C)n1c3ccccc3c3c4c(c5c6ccccc6n2c5c31)C(=O)NC4` [PKC-412], the “cross-reaction with PDGFRb” value in [4] is listed as “cross-reacts”. Moreover, the “cross-reaction with PKC” value in [5] was “cross-reacts”.
On to `O=c1c2ccccc2n2cnc3ccc(NCCNCCO)c1c32` [XF-0328], for which the EC50 in test [1] turned out to be 135 nM.
Turning to `O=c1c2cc(O)ccc2n2cnc3ccc(NCCCN4CCOCC4)c1c32` [XF-0113], the “activity against FLT3” value in test [6] is “active”. Further, the “activity against FLT3 mutant form” value in test [7] is on record as “active”. Moreover, the “inhibitory activity against KDR, PDGF and TRK members of the RTK family” value (“inhibitory activity against KDR” below) in [8] is reported as “many fold less pronounced”. In test [1], this compound registered an EC50 of 50 nM.
Broadly, the IC50 is the midpoint of a concentration-inhibition curve. For the compound `CCN(CC)CCNc1ccc2ncn3c4ccc(O)cc4c(=O)c1c23` [XF-2], in [6], the “activity against FLT3” value is given as “active”. The IC50 in [6] (read-out: IC50 against FLT3) is approximately 10 nM; in test [6] (setting [14]), 8 nM; in test [2] (read-out: IC50 against FGFR2), more than 2000 nM; in test [9], more than 5000 nM. For the same compound, the “drop of inhibitory activity on FGFR2 relative to FLT3, in EC50 value” in [2] (FGFR2 versus FLT3) is 100 fold. For the same compound, in test [7], the “activity against FLT3 mutant form” value is “active”. Besides, in test [8], the “inhibitory activity against KDR” value is “many fold less pronounced”. Moreover, the EC50 in test [10] (Homo sapiens, read-out: effective concentration to decrement cell viability by 50% (EC50), 72 hrs of continuous exposure) was 34 nM; in test [13], more than 10000 nM. For the same compound, the “cell viability potency, in words” value in [11] was “closely matched”. For the same compound, the clinical scores result in [12] is “lower clinical scores”.
`CN(C)CCNc1ccc2ncn3c4ccc(O)cc4c(=O)c1c23` [XF-0025] gave an EC50 in test [1] of 25 nM.
`O=c1c2cc(O)ccc2n2cnc3ccc(NCCN4CCOCC4)c1c32` [XF-22]: the “activity against FLT3” value in test [6] was “active”. The IC50 in test [6] (setting [14]) was 12 nM. In test [7], the “activity against FLT3 mutant form” value is reported as “active”. Further, the “inhibitory activity against KDR” value in [8] is given as “many fold less pronounced”. Moreover, in [10] (72 hrs, compared with PKC-412), the “EC50 cell viability, in words” value was “closer to the micromolar mark”. Moreover, the “cell viability potency, in words” value in [11] is recorded as “less activity”. In test [13], the EC50 is more than 10000 nM.
